From publication PMC9254247, “Dual-sensitive antibacterial peptide nanoparticles prevent dental caries” (Theranostics, 2022)
No end group written: not given here.

How the values were obtained:
[1] = tested on: normal oral and gastric organoids; type: cell-based, human
Text: (§1) Toxicity tests on human organoid s. Organoids have been established in our lab.
(§2) Ethical approval of the study and the written consent/permission forms were obtained from Institutional Review Board (IRB) at Hunan N ormal University before the study commencement. For each patient, written permission form was reviewed and signed by themselves. According to the literature14,15, briefly, the tissue samples obtained from patients were removed excess fat or muscle tissues and cut into small fragments.
(§3) The fragments were washed thoroughly, then digested and centrifuged to obtain cell pellet. The resulting pellet was resuspended in ice-cold 70 % BME for incubating 15 min and then the organoid medium was added. The composition of oral and gastric organoid medium was as follows: […]
(§4) 50- AGGGTATCTAATCCT-30) and the final amplicon was quantified using a Qubit dsDNA assay kit (Life Technologies, California, United States). […]
(§5) The operational taxonomic units (OTUs) were generated using Vsearch software with a 97% similarity cutoff. The QIIME package and the RDP classifier (confidence threshold was 70%) were performed to select the representative read of each OTU and annotate and BLAST against the Silva database Version 123, respectively. […]

[2] = tested on: S. mutans UA159 infection of teeth; test: In vivo rodent model simulating severe childhood caries; parameters: species or system Sprague-Dawley rat pups; conditions: for body weights vs control: after 35 days of topical treatment, 100 μM; for H&E staining of gingival, palatal and gastric tissues: caries study, Figure S12
Text: For each patient, written permission form was reviewed and signed. […]
In vivo rodent model simulating severe childhood caries. All the animal studies were approved by the Institutional Animal Care and Use Committee (IACUC) of Hunan Normal University, and the National Institutes of Health guidelines for the performance of animal experiments were followed. 15 days -old female Sprague– Dawley rat pups were purchased with their dams from Slac & Jingda Corporation of laboratory animals, Changsha, China. All animals should be checked for the pathogen […]
infections especially for the S.mutans by plating oral swabs on mitis salivarius agar plus bacitracin. The animals were then infected by mouth with S. mutans UA159 (mid-logarithmic) 4 times (once a day) by pipetting 0.1 mL of a cell suspension containing 2 × 10^8 colony-forming units into their mouths. When the infection was confirmed, all the pups were randomly placed into three treatment groups, and their teeth were treated topically once a day for a total 35 days using the swabs plus modified syringe. The concentration of CHX and pHly -1 NPs was 100 μM and the volume was 300 μ L. The three treatment groups were: (1) control (PBS, pH 4.5); (2) CHX (100 μ M, dissolve in PBS, pH 4.5); (3) pHly -1 NPs (100 μM, dissolve in PBS, pH 4.5). Each group was provided the National Institutes of Health cariogenic diet 2000 and water containing 5% sucrose. After 35 days of treatment, all animals were sacrificed and jaws were collected according the literature . Determination of caries score of the jaws was performed by a calibrated examiner who was blind for the study by using codified samples according to Lar son’s modification of Keyes’ system 11 -13. […]
The fragments were washed thoroughly, then digested and centrifuged to obtain cell pellet. The resulting pellet was resuspended in ice-cold 70 % BME for incubating 15 min and then the organoid medium was added. The composition of oral and gastric organoid medium was as follows:
Human oral organoid medium contains Advanced Dulbecco’s Modified Eagle’s Medium/F12 supplemented with penicillin/streptomycin, 10 mM HEPES, 2 mM GlutaMAX, 1×B27 supplement (Life Technologies), 1.25 mM N -acetyl-l-cysteine (Sigma-Aldrich), 10 mM Nicotinamide (Sigma-Aldrich), 50 ng/mL human EGF (PeproTech), 500 nM A83- 01(Tocris Bioscience), 10 ng/mL human FGF10
(PeproTech), 5 ng/mL human FGF2 (PeproTech), 1 μM Prostaglandin E2 (Tocris Bioscience), 3 μM CHIR 99021 (Sigma -Aldrich), 1μM Foskolin, 100 μg/mL […]
(§6) Human gastric organoid medium contains Advanced Dulbecco’s Modified Eagle’s […]
GlutaMAX,1×B27 supplement (Life Technologies), 50 ng/mL human EGF
(PeproTech), 200 ng/mL human FGF10 (PeproTech), 1.25 mM N-acetyl-l-cysteine (Sigma-Aldrich), 10 nM Gastin-l, 500 nM A83- 01 (Tocris Bioscience), 10 μM […]
Prostaglandin E2 (Tocris Bioscience), 100 ng/mL human recombinant IGF-1 (Bio Legend), 3 μM CHIR 99021 (Sigma-Aldrich), 10 mM Nicotinamide (Sigma-Aldrich).
For the organoid toxicity assay, organoids were digested into single cells. After centrifugation and washing, single cells were plated in 70 % BME and then added to 96-well plates (5 μ L/well). After that, 100 μ L organoid medium was added into the […]

[3] = tested on: oral microbiota and gingival, palatal and gastric tissues; type: in vivo, Kuming mice; conditions: for H&E staining of gingival, palatal and gastric tissues / oral microbiota diversity / ecological balance (PCoA, Chao, Shannon) / abundance of top three phyla (Bacteroidetes, Firmicutes, Proteobacteria): 0.2%, 100 μL, once per day for 7 days; for oral microbiota diversity / ecological balance (PCoA, Chao, Shannon) / abundance of top three phyla (Bacteroidetes, Firmicutes, Proteobacteria): n = 8; for abundance of top three phyla (Bacteroidetes, Firmicutes, Proteobacteria): saliva on 8th day; for tooth staining: data not shown
Text: Toxicity tests on mice. Furthermore, 35- 40 g fe male Kuming mice were also purchased from Slac & Jingda Corporation of laboratory animals, Changsha, China to systematically evaluate the toxicity of pHly -1 NPs to oral microflora and soft tissue in mice. All animals were randomly placed into three treatment groups, and pHly-1 NPs or CHX in aqueous solution was gradually added to mice mouth once a day for seven days. Considering the concentration of CHX used in clinic is usually 0.2 %, we determined that the concentration of the pHly -1 NPs rinsed mouse’s mouth is also 0.2 % and the volume was 100 μ L. At the 8th day, saliva was drawn for oral microbiome analysis, and gingival, palatal and gastric tissues were collected for histopathological […]
Oral flora 16S rRNA sequencing. Total genomic DNA of oral samples was extracted in OE Biotech Company (Shanghai, China) using a QIAamp DNA Stool Mini Kit (Qiagen, Germantown, MD, USA). Bacterial DNA was amplified with primers […]
targeting the V3- V4 regions (50- TACGGRAGGCAGCAG- 30,
50- AGGGTATCTAATCCT-30) and the final amplicon was quantified using a Qubit dsDNA assay kit (Life Technologies, California, United States). Equal amounts of purified amplicons were pooled for subsequent sequencing by the Illumina Nova 6000 platform (Illumina, USA) (Shanghai Oebiotech Co., Ltd., Shanghai, China). The raw data were treated and processed using the QIIME software package (version 1.8.0).
The operational taxonomic units (OTUs) were generated using Vsearch software with a 97% similarity cutoff. The QIIME package and the RDP classifier (confidence threshold was 70%) were performed to select the representative read of each OTU and annotate and BLAST against the Silva database Version 123, respectively.
Furthermore, the microbial diversity in oral samples was estimated by using the alpha diversity that include Chao1 and Shannon index. The bacterial diversity between groups was compared using the Wilcoxon rank sum test.

normal oral organoids = type: cell-based, human; conditions: 1 day
Text: as §1, §2, §3, §4, §5

normal gastric organoids = type: cell-based, human; conditions: 1 day
Text: as §1, §2, §3, §6
GlutaMAX,1×B27 supplement (Life Technologies), 50 ng/mL human EGF […]
as §4, §5

[H]/N=C(\N/C(=N/[H])NCCCCCCNC(=N)NC(=N)Nc1ccc(Cl)cc1)Nc1ccc(Cl)cc1 [CHX, chlorhexidine]
concentration inducing organoid death or decreased viability [1]: ~ 20 μM
body weights vs control [2]: No significant difference in body weights
H&E staining of gingival, palatal and gastric tissues [2]: no detectable signals for the harmful effect
caries lesions on sulcal and smooth surfaces (Keyes' scoring, Larson's modification) vs control ([2]; topical 100 μM, 300 μL, pH 4.5, once per day, 35 days, n = 8): alleviated severe lesions
H&E staining of gingival, palatal and gastric tissues [3]: epithelial cell shedding and structural damage of gastric tissue
oral microbiota diversity / ecological balance (PCoA, Chao, Shannon) [3]: reduced the oral microbiota diversity
abundance of top three phyla (Bacteroidetes, Firmicutes, Proteobacteria) [3]: significantly increased the abundance of Firmicutes species
tooth staining [3]: occasionally present
oral organoid death (normal oral organoids; 15.6 μM): about 60%
gastric organoids death (normal gastric organoids; 31.25 μM): about 40%

KIWFHAMHIIAHFIAHQHLHQHL-NH2 [pHly-1 NPs]
effect on both organoids [1]: no apparent effect
body weights vs control [2]: No significant difference in body weights
H&E staining of gingival, palatal and gastric tissues [2]: no detectable signals for the harmful effect
H&E staining of gingival, palatal and gastric tissues [3]: no visible signs of harmful effects
oral microbiota diversity / ecological balance (PCoA, Chao, Shannon) [3]: did not disrupt the ecological balance of the microbiota
abundance of top three phyla (Bacteroidetes, Firmicutes, Proteobacteria) [3]: did not affect their abundance
tooth staining [3]: not observed
effect on oral organoid viability (normal oral organoids; 500 μM): no apparent viability decrease
effect on gastric organoid viability (normal gastric organoids; 500 μM): no obvious effect
